Test results: ChEMBL document CHEMBL5523725, “Fragment-Based Anti-inflammatory Agent Design and Target Identification: Discovery of AF-45 as an IRAK4 Inhibitor to Treat Ulcerative Colitis and Acute Lung Injury” (J Med Chem, 2024)
Calls of active or inactive are those of the source. The calls are words filed in the database; no cut-off is given here.

Experiments:
[1] = system: RAW264.7; test: Antiinflammatory activity in LPS-induced mouse RAW264.7 cells assessed as inhibition of IL-6 mRNA transcription pretreated for 2 hrs followed by LPS stimulation and measured after 6 hrs by RT-qPCR analysis; type: functional, cell-based; details: dose 5-10 µM, time 8.0 hrs
[2] = system: RAW264.7; test: Inhibition of NFkappaB signaling pathway in LPS-induced mouse RAW264.7 cells assessed as inhibition of p65 phosphorylation by Western blot analysis; type: cell-based; details: dose 2.5-10 µM
[3] = target: Interleukin-1 receptor-associated kinase 1 (Homo sapiens, UniProt P51617); test: Inhibition of IRAK1 (unknown origin) at 10 uM relative to control
Interleukin-1 receptor-associated kinase 1, sequence (P51617 whole entry, looked up): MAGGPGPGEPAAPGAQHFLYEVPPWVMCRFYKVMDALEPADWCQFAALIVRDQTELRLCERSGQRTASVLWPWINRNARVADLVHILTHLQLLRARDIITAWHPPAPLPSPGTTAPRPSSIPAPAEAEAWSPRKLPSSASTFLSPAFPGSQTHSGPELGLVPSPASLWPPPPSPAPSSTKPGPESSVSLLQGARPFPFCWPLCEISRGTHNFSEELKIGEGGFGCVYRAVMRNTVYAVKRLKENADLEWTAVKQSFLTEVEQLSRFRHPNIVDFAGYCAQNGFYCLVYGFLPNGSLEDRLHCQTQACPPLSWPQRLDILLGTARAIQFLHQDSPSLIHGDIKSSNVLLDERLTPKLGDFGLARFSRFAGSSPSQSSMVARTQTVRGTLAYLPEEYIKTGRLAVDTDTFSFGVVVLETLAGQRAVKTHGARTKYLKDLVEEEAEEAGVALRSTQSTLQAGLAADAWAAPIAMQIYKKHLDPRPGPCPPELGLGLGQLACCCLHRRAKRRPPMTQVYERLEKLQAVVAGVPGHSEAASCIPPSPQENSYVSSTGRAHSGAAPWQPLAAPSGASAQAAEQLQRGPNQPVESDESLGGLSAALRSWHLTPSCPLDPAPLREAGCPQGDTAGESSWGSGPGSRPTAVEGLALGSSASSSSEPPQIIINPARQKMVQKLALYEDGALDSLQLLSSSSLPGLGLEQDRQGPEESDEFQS

[4] = target: T1, Interleukin-1 receptor-associated kinase 4 (Mus musculus) (UniProt Q8R4K2); test: Thermal stabilization of IRAK4 in mouse RAW264.7 cells at 10 uM measured after 4 hrs by CETSA; type: cell-based
T1 sequence (whole entry): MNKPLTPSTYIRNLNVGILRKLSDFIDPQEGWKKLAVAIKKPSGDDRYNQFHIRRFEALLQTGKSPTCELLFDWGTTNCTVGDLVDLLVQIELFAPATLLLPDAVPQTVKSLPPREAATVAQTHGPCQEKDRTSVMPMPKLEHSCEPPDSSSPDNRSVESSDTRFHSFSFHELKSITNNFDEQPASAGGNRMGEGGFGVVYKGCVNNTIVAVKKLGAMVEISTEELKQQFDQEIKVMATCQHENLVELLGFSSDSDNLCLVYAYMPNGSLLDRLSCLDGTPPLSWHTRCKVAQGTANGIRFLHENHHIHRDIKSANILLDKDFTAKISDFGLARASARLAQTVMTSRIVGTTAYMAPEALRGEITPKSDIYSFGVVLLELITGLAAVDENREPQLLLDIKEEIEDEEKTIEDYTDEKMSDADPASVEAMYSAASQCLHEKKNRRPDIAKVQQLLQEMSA

[5] = system: RAW264.7; test: Inhibition of NFkappaB/MAPK signaling pathway in mouse RAW264.7 cells assessed as reduction in LPS-induced p65 phosphorylation at 50 uM by Western blot analysis; type: cell-based
[6] = system: Mus musculus; test: Antiinflammatory activity in male C57BL/6 mouse model of DSS-induced ulcerative colitis assessed as reduction in macrophage infiltration in colon at 10 to 20 mg/kg, po administered for 11 days with subsequent administration of DSS for 8 days by F4/80 labeling based immunohistochemistry analysis; type: functional, organism-based; details: dose 10-20 mg/kg, time 11.0 day
[7] = system: Mus musculus; test: Antiinflammatory activity in male C57BL/6 mouse model of DSS-induced ulcerative colitis assessed as reduction in macrophage infiltration in spleen at 10 to 20 mg/kg, po administered for 11 days with subsequent administration of DSS for 8 days by F4/80 labeling based immunohistochemistry analysis; type: functional, organism-based; details: dose 10-20 mg/kg, time 11.0 day
[8] = system: Mus musculus; test: Antiinflammatory activity in LPS induced C57BL/6 mouse model of acute lung injury assessed as reduction in spleen over activation at 20 to 40 mg/kg, ip preadministered for 30 mins followed by LPS administration and measured after 6 hrs by H and E staining based analysis; type: functional, organism-based; details: dose 20-40 mg/kg, time 6.5 hrs
[9] = system: Mus musculus; test: Antiinflammatory activity in LPS induced C57BL/6 mouse model of acute lung injury assessed as reduction in over activation of spleen at 20 to 40 mg/kg, ip preadministered for 30 mins followed by LPS administration and measured after 6 hrs by F4/80 labeling based immunohistochemical analysis; type: functional, organism-based; details: dose 20-40 mg/kg, time 6.5 hrs
[10] = Stability of compound in simulated gastric fluid at 10 mg/ml incubated for 8 hrs and measured every 2 hrs hy HPLC analysis; type: ADME; details: simulated gi fluid
[11] = Stability of compound in simulated intestinal fluid at 10 mg/ml incubated for 8 hrs and measured every 2 hrs hy HPLC analysis; type: ADME; details: simulated gi fluid
[12] = Tmax in male Sprague-Dawley rat at 1 mg/kg, iv administered via tail vein and measured upto 24 hrs; type: ADME, organism-based; details: in vivo
[13] = AUC (0 to t) in male Sprague-Dawley rat at 1 mg/kg, iv administered via tail vein and measured upto 24 hrs; type: ADME, organism-based; details: in vivo
[14] = Clearance in male Sprague-Dawley rat at 1 mg/kg, iv administered via tail vein and measured upto 24 hrs; type: ADME, organism-based; details: in vivo
[15] = Oral bioavailability in male Sprague-Dawley rat at 10 mg/kg measured upto 24 hrs; type: ADME, organism-based; details: in vivo
[16] = Drug uptake in male Sprague-Dawley rat blood at 1 mg/kg, iv administered via tail vein and measured after 24 hrs; type: ADME, organism-based; details: in vivo
[17] = system: RAW264.7; test: cells; details: Mus musculus
Description: Antiinflammatory activity in LPS-induced mouse RAW264.7 cells assessed as inhibition of TNF-alpha release pretreated for 30 mins followed by LPS stimulation and measured after 24 hrs by ELISA

[18] = system: J774.A1; test: cells; details: Mus musculus
Description: Antiinflammatory activity in LPS-induced mouse J774.A1 cells assessed as inhibition of IL-6 release pretreated for 30 mins followed by LPS stimulation and measured after 24 hrs by ELISA

[19] = system: THP-1; test: cells; details: Homo sapiens
Description: Antiinflammatory activity in LPS-induced human THP-1 cells assessed as inhibition of TNF-alpha release pretreated for 30 mins followed by LPS stimulation and measured after 24 hrs by ELISA

## COc1cc2c(O[C@H]3CC[C@@H](N)CC3)ncnc2cc1OCc1ccccc1
[1]
  Activity: Dose-Dependent Effect
[2]
  inhibition: Dose-Dependent Effect
[3]
  inhibition: 87%
[4]
  Activity: Active
[5]
  inhibition: Active
[6]
  Activity: Active
[7]
  Activity: Active
[8]
  Activity: Active
[9]
  Activity: Active
[10]
  Stability: Stable
[11]
  Stability: Stable
[12]
  Tmax: 4.8 min
[13]
  AUC(0-t) at 24 h: 3800 ng·h/mL
[14]
  clearance: 3.83 mL/min/kg
[15]
  bioavailability: 28.1%
[16]
  Drug uptake: Active
[17]
  IC50: 2600 nM
[18]
  IC50: 1540 nM
[19]
  IC50: 600 nM
